What follows are compounds tested against T1, His6-PDK1 (aa 52-556) (Homo sapiens, UniProt O15530) (assay: PDK1 kinase assay III (with Tween 20)). Conditions: compound at 10 μM; PDK1 kinase assay III (values without asterisk); read-out: % CTL (residual activity of the enzyme relative to DMSO control).
T1 construct: 15 μL His6-PDK1 (aa 52-556) 3.33 ng/well); host or cells: baculovirus-infected insect cells
T1 sequence (O15530 52-556): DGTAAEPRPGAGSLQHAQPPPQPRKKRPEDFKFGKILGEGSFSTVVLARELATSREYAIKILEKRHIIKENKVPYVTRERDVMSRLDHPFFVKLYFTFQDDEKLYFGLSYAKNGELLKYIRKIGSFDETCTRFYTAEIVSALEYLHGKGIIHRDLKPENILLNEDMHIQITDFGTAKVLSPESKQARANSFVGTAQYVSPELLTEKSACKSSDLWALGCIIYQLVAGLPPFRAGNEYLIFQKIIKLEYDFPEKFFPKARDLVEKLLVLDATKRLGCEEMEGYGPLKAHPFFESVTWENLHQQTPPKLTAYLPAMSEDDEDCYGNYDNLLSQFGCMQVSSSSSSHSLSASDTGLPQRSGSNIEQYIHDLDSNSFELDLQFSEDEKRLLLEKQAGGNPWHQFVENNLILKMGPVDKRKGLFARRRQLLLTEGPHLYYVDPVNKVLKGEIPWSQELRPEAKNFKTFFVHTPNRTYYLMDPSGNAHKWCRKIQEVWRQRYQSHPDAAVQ
Type: biochemical
In short: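 Started with ATP, incubated 90 min at ambient temperature, then stopped with phosphoric acid. Asterisked values come from assay II (24 h or 5 min incubation).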

Row | Compound | remaining activity at 10 µM [%]
1 | CN(C)Cc1ccc(Nc2ncc3cc(/C=C/CNC(=O)c4cncn(Cc5ccc(F)c(F)c5)c4=O)ccc3n2)cc1 [IV-3, 1-(3,4-difluorobenzyl)-N-{(2E)-3-[2-({4-[(dimethylamino)methyl]phenyl}amino)-quinazolin-6-yl]prop-2-en-1-yl}-6-oxo-1,6-dihydropyrimidine-5-carboxamide] | 11.1
2 | Cc1c(C(=O)NC/C=C/c2ccc3nc(Nc4ccccc4)ncc3c2)c(=O)n(Cc2ccc(F)c(F)c2)n1C [IV-5, 2-(3,4-difluorobenzyl)-1,5-dimethyl-3-oxo-N-{(2E)-3-[2-(phenylamino)quinazolin-6-yl]prop-2-en-1-yl}-2,3-dihydro-1H-pyrazole-4-carboxamide] | 13.6
3 | COc1cc(/C=C/CNC(=O)c2cncn(Cc3ccc(F)c(F)c3)c2=O)cc2cnc(Nc3ccc(CN(C)C)cc3)nc12 [IV-18, 1-(3,4-difluorobenzyl)-N-{(2E)-3-[2-({4-[(dimethylamino)methyl]phenyl}amino)-8-methoxyquinazolin-6-yl]prop-2-en-1-yl}-6-oxo-1,6-dihydropyrimidine-5-carboxamide] | 15
4 | Cc1c(C(=O)NC/C=C/c2ccc3nc(Nc4ccc(CN(C)C)cc4)ncc3c2)c(=O)n(Cc2ccccc2)n1C [IV-19, 2-benzyl-N-{(2E)-3-[2-({4-[(dimethylamino)methyl]phenyl}amino)quinazolin-6-yl]prop-2-en-1-yl}-1,5-dimethyl-3-oxo-2,3-dihydro-1H-pyrazole-4-carboxamide] | 12.6
5 | Cc1c(C(=O)NC/C=C/c2ccc3nc(Nc4ccc(CN(C)C)cc4)ncc3c2)c(=O)n(Cc2cc(F)c(F)c(F)c2)n1C [IV-20, N-{(2E)-3-[2-({4-[(dimethylamino)methyl]phenyl}amino)quinazolin-6-yl]prop-2-en-1-yl}-1,5-dimethyl-3-oxo-2-(3,4,5-trifluorobenzyl)-2,3-dihydro-1H-pyrazole-4-carboxamide] | 14.3
6 | Cc1c(C(=O)NC/C=C/c2ccc3nc(Nc4ccc(CN(C)C)cc4)ncc3c2)c(=O)n(Cc2ccc(F)c(F)c2)n1C [IV-21, 2-(3,4-difluorobenzyl)-N-{(2E)-3-[2-({4-[(dimethylamino)methyl]phenyl}amino)-quinazolin-6-yl]prop-2-en-1-yl}-1,5-dimethyl-3-oxo-2,3-dihydro-1H-pyrazole-4-carboxamide] | 11.2
7 | CN(C)Cc1ccc(Nc2ncc3cc(/C=C/CNC(=O)c4cn(C)c(=O)n(Cc5ccc(F)c(F)c5)c4=O)ccc3n2)cc1 [IV-22, 3-(3,4-difluorobenzyl)-N-{(2E)-3-[2-({4-[(dimethylamino)methyl]phenyl}amino)-quinazolin-6-yl]prop-2-en-1-yl}-1-methyl-2,4-dioxo-1,2,3,4-tetrahydropyrimidine-5-carboxamide] | 19.7
8 | CN(C)Cc1ccc(Nc2ncc3cc(CCCNC(=O)c4cncn(Cc5ccc(F)c(F)c5)c4=O)ccc3n2)cc1 [IV-23, 1-(3,4-difluorobenzyl)-N-{3-[2-({4-[(dimethylamino)methyl]phenyl}amino)quinazolin-6-yl]propyl}-6-oxo-1,6-dihydropyrimidine-5-carboxamide] | 16.8
9 | O=C(NCc1ccc(Nc2ncnc3[nH]c(-c4ccccc4)cc23)cc1)c1cncn(Cc2ccc(F)c(F)c2)c1=O [IV-24, 1-(3,4-difluorobenzyl)-6-oxo-N-{4-[(6-phenyl-7H-pyrrolo[2,3-d]pyrimidin-4-yl)amino]benzyl}-1,6-dihydropyrimidine-5-carboxamide] | 15.7
10 | Cc1c(C(=O)NCc2ccc(Nc3ncnc4[nH]c(-c5ccccc5)cc34)cc2)c(=O)n(Cc2ccc(F)c(F)c2)n1C [IV-25, 2-(3,4-difluorobenzyl)-1,5-dimethyl-3-oxo-N-{4-[(6-phenyl-7H-pyrrolo[2,3-d]-pyrimidin-4-yl)amino]benzyl}-2,3-dihydro-1H-pyrazole-4-carboxamide] | 33.5
11 | CN(C)Cc1ccc(-c2cc3c(Nc4ccc(CNC(=O)c5cncn(Cc6ccc(F)c(F)c6)c5=O)cc4)ncnc3[nH]2)cc1 [IV-26, 1-(3,4-difluorobenzyl)-N-{4-[(6-{4-[(dimethylamino)methyl]phenyl}-7H-pyrrolo[2,3-d]pyrimidin-4-yl)amino]benzyl}-6-oxo-1,6-dihydropyrimidine-5-carboxamide] | 20.9
12 | O=C(NCc1ccc(Nc2ncnc3[nH]ccc23)cc1)c1cncn(Cc2ccc(F)c(F)c2)c1=O [IV-27, 1-(3,4-difluorobenzyl)-6-oxo-N-[4-(7H-pyrrolo[2,3-d]pyrimidin-4-ylamino)benzyl]-1,6-dihydropyrimidine-5-carboxamide] | 43.9
13 | CN(C)Cc1ccc(Nc2ncc3cc(N4CC[C@@H](NC(=O)c5cncn(Cc6ccc(F)c(F)c6)c5=O)C4)ccc3n2)cc1 [IV-29, 1-(3,4-difluorobenzyl)-N-{(3R)-1-[2-({4-[(dimethylamino)methyl]phenyl}amino)-quinazolin-6-yl]pyrrolidin-3-yl}-6-oxo-1,6-dihydropyrimidine-5-carboxamide] | 14.7
14 | CN(C)Cc1ccc(Nc2ncc3cc(/C=C(\F)CNC(=O)c4cncn(Cc5ccc(F)c(F)c5)c4=O)ccc3n2)cc1 [IV-30, 1-(3,4-difluorobenzyl)-N-{(2Z)-3-[2-({4-[(dimethylamino)methyl]phenyl}amino)-quinazolin-6-yl]-2-fluoroprop-2-en-1-yl}-6-oxo-1,6-dihydropyrimidine-5-carboxamide] | 13.7
15 | CN(C)Cc1ccc(Nc2ncc3cc(N4CC(NC(=O)c5cncn(Cc6ccc(F)c(F)c6)c5=O)C4)ccc3n2)cc1 [IV-31, 1-(3,4-difluorobenzyl)-N-{1-[2-({4-[(dimethylamino)methyl]phenyl}amino)quinazolin-6-yl]azetidin-3-yl}-6-oxo-1,6-dihydropyrimidine-5-carboxamide] | 20.2
16 | CC(/C=C/c1ccc2nc(Nc3ccc(CN(C)C)cc3)ncc2c1)NC(=O)c1cncn(Cc2ccc(F)c(F)c2)c1=O (centres unmarked) [IV-32, 1-(3,4-difluorobenzyl)-N-{(3E)-4-[2-({4-[(dimethylamino)methyl]phenyl}amino)-quinazolin-6-yl]but-3-en-2-yl}-6-oxo-1,6-dihydropyrimidine-5-carboxamide] | 19
17 | CN(C)Cc1ccc(Nc2ncc3c(F)c(/C=C/CNC(=O)c4cncn(Cc5ccc(F)c(F)c5)c4=O)ccc3n2)cc1 [IV-33, 1-(3,4-difluorobenzyl)-N-{(2E)-3-[2-({4-[(dimethylamino)methyl]phenyl}amino)-5-fluoroquinazolin-6-yl]prop-2-en-1-yl}-6-oxo-1,6-dihydropyrimidine-5-carboxamide] | 14.9

Results, then the compound that gave them:

Row | remaining activity at 10 µM [%] | Compound
18 | 30.4 | N#Cc1ccc(Nc2ncc3cc(C#CCNC(=O)c4cncn(Cc5ccc(F)c(F)c5)c4=O)ccc3n2)cc1 [III-44, N-(3-{2-[(4-cyanophenyl)amino]quinazolin-6-yl}prop-2-yn-1-yl)-1-(3,4-difluorobenzyl)-6-oxo-1,6-dihydropyrimidine-5-carboxamide]
19 | 19.8 | Cc1c(C(=O)NCC#Cc2ccc3nc(Nc4ccc(C#N)cc4)ncc3c2)c(=O)n(Cc2ccc(F)c(F)c2)n1C [III-45, N-(3-{2-[(4-cyanophenyl)amino]quinazolin-6-yl}prop-2-yn-1-yl)-2-(3,4-difluorobenzyl)-1,5-dimethyl-3-oxo-2,3-dihydro-1H-pyrazole-4-carboxamide]
20 | 21 | COC(=O)c1ccc(Nc2ncc3cc(C#CCNC(=O)c4c(C)n(C)n(Cc5ccc(F)c(F)c5)c4=O)ccc3n2)cc1 [III-46, methyl-4-({6-[3-({[2-(3,4-difluorobenzyl)-1,5-dimethyl-3-oxo-2,3-dihydro-1H-pyrazol-4-yl]carbonyl}amino)prop-1-yn-1-yl]quinazolin-2-yl}amino)benzoate]
21 | 13.3 | Cc1c(C(=O)NCC#Cc2ccc3nc(Nc4ccc(C(=O)O)cc4)ncc3c2)c(=O)n(Cc2ccc(F)c(F)c2)n1C [III-47]
22 | 18.3 | CNc1ncc2cc(/C=C/CNC(=O)c3cncn(Cc4ccc(F)c(F)c4)c3=O)cc(OCCN)c2n1 [III-59]
23 | 14.2 | NCCOc1cc(/C=C/CNC(=O)c2cncn(Cc3ccc(F)c(F)c3)c2=O)cc2cnc(Nc3ccccc3)nc12 [III-63]
24 | 13 | Cc1c(C(=O)NCC#Cc2cc(OCCCN)c3nc(Nc4ccc(N5CCOCC5)cc4)ncc3c2)c(=O)n(Cc2ccc(F)c(F)c2)n1C [III-74]
25 | 11.8 | Cc1c(C(=O)NCC#Cc2cc(OC3CCNC3)c3nc(Nc4ccc(N5CCOCC5)cc4)ncc3c2)c(=O)n(Cc2ccc(F)c(F)c2)n1C (centres unmarked) [III-76]
26 | 20 | Cc1cccc(Nc2ncc3cc(C#CCNC(=O)c4c(C)n(C)n(Cc5ccc(F)c(F)c5)c4=O)ccc3n2)c1 [III-79]
27 | 13.3 | Cc1c(C(=O)NCC#Cc2ccc3nc(Nc4ccc(C(=O)N(C)CCCN(C)C)cc4)ncc3c2)c(=O)n(Cc2ccc(F)c(F)c2)n1C [III-90]
28 | 15.8 | COCCCN(C)C(=O)c1ccc(Nc2ncc3cc(C#CCNC(=O)c4cncn(Cc5ccc(F)c(F)c5)c4=O)ccc3n2)cc1 [III-104]
29 | 13.5 | O=C(NCCO)c1ccc(Nc2ncc3cc(C#CCNC(=O)c4cncn(Cc5ccc(F)c(F)c5)c4=O)ccc3n2)cc1 [III-115]
